Results from patent US8247596B2 (Sumitomo Chemical Company, Limited, priority 2007, dated 2012).

Key:
Type in all cases: in vivo
Culex pipiens pallens = assay: Test Example 6: larvae of Culex pipiens pallens in treated water; conditions: 24 h, read-out: pest death rate
Experimental: (§1) A formulation of any one of the present compounds (7), (11), (12), (13), (17), (18t), (18c), (22), (24), (25t), (25c), (26t), (26c), (27), (29), (33), (34), (35), (36), (38), (40), (41), (43), (47), (49), (50) and (55) obtained according to Formulation Example 36 was diluted with water so that the active ingredient concentration was 500 ppm to obtain a test solution.
To 100 mL of ion-exchanged water, 0.7 ml of the test solution was added (active ingredient concentration: 3.5 ppm). Into the solution, 20 last-instar larvae of Culex pipiens pallens were released. One day after, the number of surviving Culex pipiens pallens was examined and the death rate of the pest was calculated.

Musca domestica = assay: Test Example 4: filter paper/sucrose bait test on Musca domestica; conditions: 24 h, read-out: pest death rate
Experimental: as §1, with “compounds (1), (4), (5),” for “compounds”, “(13),” for “(13), (17),”, “(18c), (19), (20), (21),” for “(18c),”, “(29), (30), (31), (32),” for “(29),”, “(35),” for “(35), (36), (38),”, “(43),” for “(43), (47),”
(§2) A filter paper having a diameter of 5.5 cm was spread on the bottom of a polyethylene cup having a diameter of 5.5 cm and 0.7 ml of the test solution was added dropwise onto the filter paper. As a bait 30 mg of sucrose was uniformly placed on the filter paper. Into the polyethylene cup, 10 female imagoes of Musca domestica were released and the cup was sealed with a lid. After 24 hours, the number of surviving Musca domestica was examined and the death rate of the pest was calculated.

[1] = tested on: Haemaphysalis longicornis; assay: Test Example 7: treated filter paper pouch test on ticks; conditions: Haemaphysalis longicornis, 48 h; filter paper treated with 100 mg/m^2; non-blood-sucking nymphal ticks, 10 ticks/group; two days after; read-out: pest death rate
Experimental: Five milligrams of any one of the present compounds (4), (7), (18t), (22), (25t), (26t), (29), (30), (31), (32), (33), (34), (35), (40), (41), (42), (43), (44) and (55) was dissolved in 10 mL of acetone. One milliliter of the acetone solution was uniformly applied on one side of a filter paper (TOYO No. 2; 5×10 cm), so that the filter paper having a surface area of 50 cm^2 was treated with 100 mg/m^2 of the present compound. After drying, the filter paper was folded in two and its edges were clipped to make a pouch. Test ticks (non-blood-sucking nymphal ticks, Haemaphysalis longicornis, 10 ticks/group) were put into the pouch, and the pouch was sealed with clips. Two days after, the number of surviving ticks was examined and the death rate was calculated.

Blattalla germanica = assay: Test Example 5: filter paper/sucrose bait test on Blattalla germanica; conditions: 144 h, read-out: pest death rate
Experimental: A formulation of any one of the present compounds (4), (5), (7), (12), (13), (18t), (18c), (22), (25t), (25c), (26t), (26c), (29), (30), (31), (32), (33), (34), (40), (41), (43), (49) and (55) obtained according to Formulation Example 36 was diluted with water so that the active ingredient concentration was 500 ppm to obtain a test solution.
as §2, with “2 male” for “10 female”, “Blattalla germanica” for “Musca domestica”, “6 days,” for “24 hours,”

| SMILES | pest or weed control at 3.5 ppm (Culex pipiens pallens) [%] | pest or weed control at 500 ppm (Musca domestica) [%] | pest or weed control at 100 mg/m2 [1] [%] | pest or weed control at 500 ppm (Blattalla germanica) [%] |
| --- | --- | --- | --- | --- |
| C#CC1CCC(C[S+]([O-])CCC(F)(F)F)CC1 (stereo not shown) [present compound (26t), 1-ethynyl-4-(3,3,3-trifluoropropylsulfinylmethyl)cyclohexane] | ≥ 95 | ≥ 90 | 90 | 100 |
| N#CC(C1CCC(F)(F)CC1)S(=O)(=O)CCC(F)(F)F (stereo not shown) [present compound (29), 2-(4,4-difluorocyclohexyl)-2-(3,3,3-trifluoropropylsulfonyl)acetonitrile] | ≥ 95 | ≥ 90 | 90 | 100 |
| CON=C1CCC(C(C#N)S(=O)(=O)CCC(F)(F)F)CC1 (stereo not shown) [present compound (33), 2-[4-(methoxyimino)cyclohexyl]-2-(3,3,3-trifluoropropylsulfonyl)acetonitrile] | ≥ 95 | ≥ 90 | 90 | 100 |
| N#CC(C1CCC(=NO)CC1)S(=O)(=O)CCC(F)(F)F (stereo not shown) [present compound (34), 2-[4-(hydroxyimino)cyclohexyl]-2-(3,3,3-trifluoropropylsulfonyl)acetonitrile] | ≥ 95 | ≥ 90 | 90 | 100 |
| CON=C1CCC(C(C)(C#N)S(=O)(=O)CCC(F)(F)F)CC1 (stereo not shown) [present compound (40), 2-[4-(methoxyimino)cyclohexyl]-2-(3,3,3-trifluoropropylsulfonyl)propionitrile] | ≥ 95 | ≥ 90 | 90 | 100 |
| CCC(C#N)(C1CCC(=NOC)CC1)S(=O)(=O)CCC(F)(F)F (stereo not shown) [present compound (41), 2-[4-(methoxyimino)cyclohexyl]-2-(3,3,3-trifluoropropylsulfonyl)butyronitrile] | ≥ 95 | ≥ 90 | 90 | 100 |
| CON=C1CCC(C(C#N)S(=O)(=O)CCC(F)(F)C(F)(F)F)CC1 (stereo not shown) [present compound (55), 2-[4-(methoxyimino)cyclohexyl]-2-(3,3,4,4,4-pentafluorobutylsulfonyl)acetonitrile] | ≥ 95 | ≥ 90 | 90 | 100 |
